Data reported in ChEMBL document CHEMBL2029343, “Stereoselective synthesis of alpinoid-C and its analogues and study of their cytotoxic activity against cancer cell lines” (Bioorg Med Chem Lett, 2012).

Assays:
Assay type in all cases: functional, cell-based
HepG2 = test: Antiproliferative activity against human HepG2 cells after 48 hrs by MTT assay; conditions: HepG2, 48 h
THP-1 = test: Antiproliferative activity against human THP1 cells after 48 hrs by MTT assay; conditions: THP-1, 48 h
B16-F10 = test: Antiproliferative activity against mouse B16F10 cells after 48 hrs by MTT assay; conditions: B16-F10, 48 h
COLO 205 = test: Antiproliferative activity against human COLO205 cells after 48 hrs by MTT assay; conditions: COLO 205, 48 h
U-937 = test: Antiproliferative activity against human U937 cells after 48 hrs by MTT assay; conditions: U-937, 48 h

| SMILES | IC50 (HepG2) | IC50 (THP-1) | IC50 (B16-F10) | IC50 (COLO 205) | IC50 (U-937) |
| --- | --- | --- | --- | --- | --- |
| O=C(/C=C/[C@@H](O)Cc1ccccc1)CCc1ccccc1 | 355 µM | 195 µM | 337 µM | 498 µM | 168 µM |
| O=C(/C=C/[C@H](O)Cc1ccccc1)CCc1ccccc1 | 185 µM | 120 µM | 130 µM | 195 µM | 139 µM |

Stronger by IC50 (HepG2), values ahead:

| IC50 (HepG2) | IC50 (THP-1) | IC50 (B16-F10) | IC50 (COLO 205) | IC50 (U-937) | SMILES |
| --- | --- | --- | --- | --- | --- |
| 4.76 µM |  | 18.7 µM | 0.43 µM |  | COc1cc([C@@H]2c3cc4c(cc3[C@@H](O[C@@H]3O[C@@H]5CO[C@@H](C)O[C@H]5[C@H](O)[C@H]3O)[C@H]3COC(=O)[C@H]23)OCO4)cc(OC)c1O [ETOPOSIDE] |
| 53.5 µM | 32.3 µM | 96.9 µM | 7.21 µM | 31.9 µM | COc1ccc(CCC(=O)/C=C/[C@@H](O)Cc2ccccc2)cc1OC |
| 32.6 µM | 7.53 µM | 38.1 µM | 11.1 µM | 22.3 µM | COc1ccc(CCC(=O)/C=C/[C@H](O)Cc2ccccc2)cc1OC |
